According to article PMC5505701, “Somatostatin binds to the human amyloid β peptide and favors the formation of distinct oligomers” (eLife, 2017):
“Also recorded” adds a separate entry of the source. No end group written: not given here.

Assays:
[1] = target: T1, Aβ1-42 (Homo sapiens, UniProt P05067); assay: Thioflavin T (ThT) fluorescence Aβ1-42 aggregation assay; assay type: biochemical
T1 construct: purchased Anaspec, Inc. (Fremont, CA, USA) AS-24224; host or cells: synthetic peptide
Description: (§1) Assay procedures were largely based on a protocol described by Sarah Linse’s group ([Hellstrand et al., 2010]). […] 100 μL of peptide solutions were supplemented with 25 μM thioflavin T (ThT) (catalog number T3516, Sigma-Aldrich Canada, Oakville, ON, Canada) and loaded into 96-Well Half-Area Microplates (catalog number 675096, Greiner Bio One International, Kremsmünster, Austria). The subsequent plate incubation proceeded at 37°C with shaking at 700 rpm for 4 of every 5 min in a microplate reader (CLARIOstar, BMG Labtech, Guelph, ON, Canada) for overall durations specified in individual figures. ThT fluorescence was measured every 5 min at excitation and emission wavelengths of 444 nm and 485 nm, respectively.

[2] = target: T1, Aβ1-42; assay: Western blot of ThT assay fractions: oligomeric complexes of Aβ1-42; assay type: biochemical; settings: for SDS-stable complex with three Aβ1-42 peptides: five-fold increased Aβ1-42 level
From the text: (§2) Next, Western blot analyses of ThT assay fractions were undertaken without or with prior boiling in SDS. […] Only when SDS was present in the sample buffer, low mass bands appeared in the Western blot that migrated at a level expected for the monomeric Aβ peptide, consistent with the interpretation that these peptides were released from larger oligomeric or fibrillar aggregates under denaturing conditions (see also Figure 5).

[3] = tested on: tau phosphorylated at pSer202/pThr205 (AT8) and pThr231 (AT180) in primary hippocampal neurons; assay: Primary hippocampal neuron tau phosphorylation assay (Western blot); settings: for reduction in tau phosphorylation at AT8, pre-aggregated peptide alone: peptide subjected to pre-aggregation step, no Aβ; for effect on oAβ1-42-induced tau hyperphosphorylation: peptide added together with oAβ1-42
[4] = tested on: oligomeric versus monomeric Aβ1-42 (Aβ1-42-biotin bait); assay: Affinity capture interactome Experiment III (oAβ1-42-biotin vs mAβ1-42-biotin); settings: TMT; for Experiment III oAβ1-42-B/mAβ1-42-B Ratio: oligomeric versus monomeric bait, human frontal lobe digitonin extract, pH 8.0, 4°C overnight
[5] = tested on: oligomeric Aβ1-42 (oAβ1-42-biotin bait); assay: Affinity capture interactome Experiment II (C-terminally tethered oAβ1-42-biotin vs biotin); settings: enrichment relative to biotin-only negative control; human frontal lobe digitonin extract; TMT; pH 8.0, 4°C overnight
[6] = target: Aβ1-42-TMR (Homo sapiens, UniProt P05067); assay: FRET competition assay (Edans-SST14 / Aβ1-42-TMR)
[7] = tested on: Aβ1-42 and Aβ17-42 biotin baits; assay: iTRAQ affinity capture with four baits (biotin, biotin-Aβ1-42, Aβ1-42-biotin, Aβ17-42-biotin); assay type: binding; settings: oAβ1-42-biotin versus N-terminally biotinylated Aβ1-42, Aβ17-42-biotin and biotin; human frontal lobe extract
From the text: This conclusion was strengthened by the fact that this peptide is naturally preceded by a tryptic cleavage site and the exquisite match between observed and in silico predicted fragment ions (Figure 2B). In light of the high intensity ion counts of fragments observed for this peptide and its robust co-enrichment with oAβ1-42-B in three biological replicates (Figure 2C), it first seemed puzzling that the identification of this protein group was not corroborated by other spectra that map to sequences outside of the ‘NFFWK’ sequence stretch. Searching for a plausible explanation, it became apparent that preprosomatostatin and preprocortistatin give rise to cyclic neuropeptide hormones through a series of posttranslational trimming steps, and the ‘NFFWK’ peptide is the only tryptic peptide derived from the mature hormone that is of sufficient length and distinct sequence to be readily identifiable by MS (Figure 2A). […] This conclusion was further corroborated by two additional PSMs that mapped to regions outside the SST14 neuropeptide sequence and one additional five amino acid peptide of the sequence ‘TFTSC’ that could be assigned (albeit not unambiguously) to the mature SST14 neuropeptide sequence itself.

[8] = target: T2, Aβ1-40 (Homo sapiens, UniProt P05067); assay: ThT fluorescence Aβ1-40 aggregation assay; assay type: biochemical; settings: 5 to 10 times higher peptide concentrations
T2 construct: Aβ1-40 (catalog number AS-24236); purchased Anaspec, Inc. (Fremont, CA, USA) AS-24236; host or cells: synthetic peptide
From the text: as §2, §1

[9] = target: T1, Aβ1-42; assay: Western blot / silver stain detection of Aβ1-42 after incubation with SST14 or CST17; assay type: biochemical
Description: Initially, we were interested in observing the influence of incubation time on sample composition (Figure 5B).

T1 sequence (P05067 672-713 limits assumed): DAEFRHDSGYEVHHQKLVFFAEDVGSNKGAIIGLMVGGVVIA
T2 sequence (P05067 672-711 limits assumed): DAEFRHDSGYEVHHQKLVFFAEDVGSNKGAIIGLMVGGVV
Sequence of Aβ1-42-TMR (P05067 672-713 limits assumed): as the sequence (P05067 672-713 limits assumed) above

## [Arg8]-vasopressin [AVP]
[1]; 15 μM SST14 (or control peptide), SEC-purified Aβ1-42, 25 μM ThT, 37°C, shaking 700 rpm
  lag phase extension of Aβ1-42 aggregation: No delay was observed
[2]; 18 hr co-incubation, 6E10
  formation of 50-60 kDa Aβ1-42 bands (in words): not seen in samples incubated either without these peptides or with AVP
[2]; Western blot
  SDS-stable complex with three Aβ1-42 peptides: never observed in fractions lacking SST14 (or CST17) or containing AVP
[3]
  reduction in tau phosphorylation at AT8, pre-aggregated peptide alone: not seen

## Pyruvate kinase isozymes M1/M2: human brain protein
[4]
  Experiment III oAβ1-42-B/mAβ1-42-B Ratio: 4.33
[5]
  Experiment II oAβ1-42-B/B Ratio: 1.68

## Dihydropyrimidinase-related protein 1: human brain protein
[4]
  Experiment III oAβ1-42-B/mAβ1-42-B Ratio: 3.71
[5]
  Experiment II oAβ1-42-B/B Ratio: 1.39

## Ras-related protein Rab-1A: human brain protein
[4]
  Experiment III oAβ1-42-B/mAβ1-42-B Ratio: 3.28

## Cathepsin D: human brain protein
[4]
  Experiment III oAβ1-42-B/mAβ1-42-B Ratio: 2.10

## Cofilin-1: human brain protein
[4]
  Experiment III oAβ1-42-B/mAβ1-42-B Ratio: 5.34
[5]
  Experiment II oAβ1-42-B/B Ratio: 1.75

## C[C@H](N)C(=O)NCC(=O)N[C@H]1CSSC[C@@H](C(=O)O)NC(=O)[C@H](CO)NC(=O)[C@H]([C@@H](C)O)NC(=O)[C@H](Cc2ccccc2)NC(=O)[C@H]([C@@H](C)O)NC(=O)[C@H](CCCCN)NC(=O)[C@H](Cc2c[nH]c3ccccc23)NC(=O)[C@H](Cc2ccccc2)NC(=O)[C@H](Cc2ccccc2)NC(=O)[C@H](CC(N)=O)NC(=O)[C@H](CCCCN)NC1=O [SST14, somatostatin-14]
[6]
  EC50: 12.7 µM

## NFFWK
[7]
  capture by Aβ baits (iTRAQ signature ion intensity): the free N-terminus is indeed essential for this peptide-peptide interaction
[4]; Experiment III, human frontal lobe extract
  binding preference for oligomeric versus monomeric Aβ1-42-biotin (in words): binds preferentially to oligomeric (pre-aggregated) but not monomeric Aβ1-42-biotin

## bombesin
[3]
  reduction in tau phosphorylation at AT8, pre-aggregated peptide alone: not seen

## Dihydropyrimidinase-related protein 3: human brain protein
[4]
  Experiment III oAβ1-42-B/mAβ1-42-B Ratio: 3.40
[5]
  Experiment II oAβ1-42-B/B Ratio: 1.42

## SST28: longer bioactive version of somatostatin, Anaspec AS-22902 (SANSNPAMAPRERKAGCKNFFWKTFTSC; ends and bridges not checked; cysteine pairing not given here; UniProt P61278 89-116, looked up)
[3]
  effect on oAβ1-42-induced tau hyperphosphorylation: did not prevent the anticipated tau hyperphosphosphorylation-inducing effect of oAβ1-42 exposure

## Aβ1-40: synthetic human Aβ1-40, Anaspec AS-24236
[8]; peptide alone
  lag phase of Aβ1-40 aggregation: 45 min

## oxytocin: control neuropeptide, Anaspec AS-24275
[3]
  reduction in tau phosphorylation at AT8, pre-aggregated peptide alone: not seen

## Interleukin enhancer-binding factor 2: human brain protein
[4]
  Experiment III oAβ1-42-B/mAβ1-42-B Ratio: 1.41

## Carbohydrate kinase domain-containing protein: human brain protein
[4]
  Experiment III oAβ1-42-B/mAβ1-42-B Ratio: 1.72
[5]
  Experiment II oAβ1-42-B/B Ratio: 2.17

## CST29: preprocortistatin-derived regulatory peptide, Bachem H-6458 (QEGAPPQQSARRDRMPCRNFFWKTFSSCK; ends and bridges not checked; cysteine pairing not given here; UniProt O00230 77-105, looked up)
[3]
  effect on oAβ1-42-induced tau hyperphosphorylation: did not prevent the anticipated tau hyperphosphosphorylation-inducing effect of oAβ1-42 exposure

## ATP synthase subunit beta, mitochondrial: human brain protein
[4]
  Experiment III oAβ1-42-B/mAβ1-42-B Ratio: 2.61

## CST17: preprocortistatin-derived regulatory peptide, Bachem H-5536
[1]; 5 to 10 times higher peptide concentrations, SST14 not shown
  lag phase extension of Aβ (Aβ1-42) aggregation: approximately one hour
[1]; ThT, 37°C
  concentration dependence of effect on Aβ1-42 aggregation: concentration-dependent inhibition of Aβ1-42-dependent ThT fluorescence
[1]; compared with SST14 (at 15 μM in ThT assay)
  relative potency versus SST14 in interfering with Aβ1-42 aggregation: more potent in this regard than SST14; also recorded: even more pronounced effects on Aβ aggregation than SST14
[1]; peptide 15 μM, 37°C, 25 μM ThT
  inhibition of Aβ1-42-dependent ThT incorporation: completely abrogated ThT incorporation
[9]; 18 hr incubation, 6E10 Western blot
  intensity of HMM 6E10 signals: only very weak HMM signals
[9]; 18 hr incubation, varying SST14 or CST17 concentration
  concentration dependence of 6E10-reactive blot signals: inverse correlation
[9]; 18 hr incubation, 4G8 and 12F4 not shown
  masking of Aβ1-42 detection by antibodies 6E10, 4G8, 12F4: masked the ability of these antibodies to bind to Aβ1-42
[9]; silver-stain of same fractions
  silver-stain Aβ1-42 signal: relatively stronger Aβ1-42 signals
[8]; SST14 not shown
  lag phase extension of Aβ (Aβ1-40) aggregation: approximately one hour
[2]; Western blot lanes 17-20
  intensity of homodimeric Aβ1-42 bands: reduced
[2]; Western blot, x-42 and 6E10 antibodies
  size of SDS-resistant heterodimeric complex with mAβ1-42: 5-6 kDa
[2]; boiled in SDS
  detection of 50-60 kDa bands by antibody directed against C-terminus of Aβ1-42: escaped detection with an antibody directed against the C-terminus of Aβ1-42
[2]; Western blot
  SDS-stable complex with three Aβ1-42 peptides: occasionally observed signals that migrated at molecular masses expected for SDS-stable complexes consisting of three Aβ1-42 peptides
[3]
  effect on oAβ1-42-induced tau hyperphosphorylation: did not prevent the anticipated tau hyperphosphosphorylation-inducing effect of oAβ1-42 exposure
[3]; pre-incubated peptide 4 µM + mAβ1-42 5 µM, 24 hr exposure
  potentiation of tau hyperphosphorylation with monomeric Aβ1-42: potentiate tau hyperphosphorylation

## Transforming protein RhoA: human brain protein
[4]
  Experiment III oAβ1-42-B/mAβ1-42-B Ratio: 5.74

## DnaJ homolog subfamily A member 2: human brain protein
[4]
  Experiment III oAβ1-42-B/mAβ1-42-B Ratio: 6.10

## 2,4-dienoyl-CoA reductase, mitochondrial: human brain protein
[4]
  Experiment III oAβ1-42-B/mAβ1-42-B Ratio: 4.32
